US12599685B2, “Tumor stroma imaging agent and preparation method thereof” (SHANGHAI UNIVERSITY OF MEDICINE & HEALTH SCIENCES, priority 2020, dated 2026)

Experiments:
[1] = test system: HT-1080-FAP cell line; experiment: Cell binding experiment of (S)-[18F]-AlF-NOTA-Bn-FAPI-4; format: cell-based, human; conditions: 1 h incubation
Experimental: (S)—[^18F]—AlF-NOTA-Bn-FAPI-4 was adopted as an experimental group, AlF-FAPI-75+(S)—[^18F]—AlF-NOTA-Bn-FAPI-4 was adopted as a blockage group, and free ^18F^− was adopted as a control group.
A human fibrosarcoma cell HT-1080-FAP (HT-1080-FAP cell line) transfected by an FAP gene was activated to obtain an HT-1080-FAP cell suspension.
(§1) The experimental group: 2 mL of the HT-1080-FAP cell suspension was taken and washed three times with frozen PBS. A complete medium including the imaging agent (S)—[^18F]—AlF-NOTA-Bn-FAPI-4 (2.96 MBq, 80 μCi) was added, and the resulting mixture was incubated for 1 h. The cells were washed three times with frozen PBS, and 0.5 mL of NaOH-sodium dodecyl sulfate (SDS) (1M NaOH, 1% SDS) was added for lysis. The resulting cell lysate was finally collected, placed in a marked γ-counting tube, and subjected to γ-counting.
as §1, with “blockage” for “experimental”, “PBS. A complete medium including the blocker AlF-FAPI-75 was added, and the resulting mixture was incubated for 0.5 h.” for “PBS.”, “NaOH-SDS (1 M” for “NaOH-sodium dodecyl sulfate (SDS) (1M”
as §1, with “control” for “experimental”, “free ^18F^−” for “imaging agent (S)—[^18F]—AlF-NOTA-Bn-FAPI-4”, “NaOH-SDS (1 M” for “NaOH-sodium dodecyl sulfate (SDS) (1M”, “γ-counting. The final volumes of the groups were the same.” for “γ-counting.”

[2] = test system: tumor-bearing mice; experiment: Biodistribution in tumor-bearing mice; format: in vivo
Experimental: Six mice were divided into an experimental group and a blockage group with 3 mice in each group. Mice in the experimental group each were injected with (S)—[^18F]—AlF-NOTA-Bn-FAPI-4 (3.7 MBq, 100 μCi) through a tail vein within 1 min, and 60 min later, the mice each were sacrificed by cutting a carotid artery for bloodletting. Mice in the blockage group each were injected with 100 μg of the blocker AlF-FAPI-75 (1,000 μg/mL) through a tail vein and injected with (S)—[^18F]—AlF-NOTA-Bn-FAPI-4 (3.7 MBq, 100 μCi) through a tail vein 30 min later, and 60 min later, the mice each were sacrificed by cutting a carotid artery for bloodletting. The heart, liver, lung, kidney, spleen, brain, and the like were collected, weighed, and tested for radioactivity. Finally, an (S)—[^18F]—AlF-NOTA-Bn-FAPI-4 radioactivity uptake rate (a percentage of uptake radioactivity per gram of tissue in the injected radioactivity, ID/g) in each of blood and various organs and a radioactivity ratio of a target organ to a non-target organ (T/NT) were calculated at different time points.

[3] = blockage group: 100 μg AlF-FAPI-75 i.v. 30 min before tracer, 1 h after injection
[4] = experimental group, 1 h after tail vein injection, 3.7 MBq
[5] = tumor-bearing mice, 1 h after injection

Distribution, Blood [2, 3]: 0.13±0.10 % ID/g | Distribution, Bone [2, 3]: 0.06 ± 0.01 % ID/g | Distribution, Brain [2, 3]: 0.03 ± 0.01 % ID/g | Distribution, Heart [2, 3]: 0.08 ± 0.05 % ID/g | Distribution, Intestine [2, 3]: 0.16 ± 0.02 % ID/g | Distribution, Kidney [2, 3]: 0.84±0.21 % ID/g | Distribution, Liver [2, 3]: 0.08 ± 0.04 % ID/g | Distribution, Lung [2, 3]: 0.28 ± 0.19 % ID/g | Distribution, Muscle [2, 3]: 0.09 ± 0.03 % ID/g | Distribution, Spleen [2, 3]: 0.16 ± 0.14 % ID/g | Distribution, Tumor [2, 3]: 0.22±0.05 % ID/g | Distribution, Blood [2, 4]: 0.10±0.04 % ID/g | Distribution, Bone [2, 4]: 0.15 ± 0.03 % ID/g | Distribution, Brain [2, 4]: 0.02 ± 0.01 % ID/g | Distribution, Heart [2, 4]: 0.09 + 0.09 % ID/g | Distribution, Intestine [2, 4]: 0.19 ± 0.06 % ID/g | Distribution, Kidney [2, 4]: 0.94±0.20 % ID/g | Distribution, Liver [2, 4]: 0.07 ± 0.05 % ID/g | Distribution, Lung [2, 4]: 0.16 ± 0.08 % ID/g | Distribution, Muscle [2, 4]: 0.16 ± 0.05 % ID/g | Distribution, Spleen [2, 4]: 0.10 ± 0.01 % ID/g | Distribution, Tumor [2, 4]: 1.12±0.06 % ID/g | clearance in the blood [2, 5]: quickly cleared in the blood | route of excretion [2, 5]: mainly excreted by the kidney
Substance: (S)—[^18F]—AlF-NOTA-Bn-FAPI-4
absorption of tumor cells, experimental group relative to blockage group ([1]; t=6.713, P<0.05): 3 times | absorption of tumor cells, experimental group relative to control group (free 18F-) ([1]; t=8.934, P<0.01): 33.31 times | Radioactivity count value ([1]; HT-1080-FAP cells, 2.96 MBq (80 μCi), no blocker): 5999.98 ± 864.12 γ count value/min | Radioactivity count value ([1]; blockage group: blocker AlF-FAPI-75 incubated 0.5 h, then imaging agent 2.96 MBq): 2000.01 ± 113.34 γ count value/min
